Data reported in patent US20250332154A1, “USE OF NAPHTHOQUINE PHOSPHATE IN PREPARATION OF A MEDICAMENT FOR TREATING AUTOIMMUNE DISEASES” (SHANGHAI PHARMACEUTICALS INDUSTRY CO., LTD, priority 2022, published 2025).
Structures can show the parent of a compound that is named as a salt. Where two headings read alike, the source gives them in different places.

How the values were obtained:
Assay type in all cases: cell-based
[1] = system: mouse whole spleen lymphocytes (LPS-induced B cell activation and proliferation); assay: LPS-induced lymphocyte proliferation assay (3H-thymidine); conditions: for IC50: LPS 10 μg/ml, 48 hours, 3H-thymidine, read-out: LPS IC50
Experimental: BALB/c mice were sacrificed by cervical dislocation, and spleens were aseptically excised to prepare whole spleen lymphocytes. The cells were adjusted to the required concentration.
A suspension of mouse spleen lymphocytes was inoculated into a 96-well plate at 5×10^5/well, and ConA (final concentration: 1 μg/ml) or LPS (final concentration: 10 μg/ml) and the above 10 concentration gradients of the compound were added. Corresponding cell control wells without ConA and LPS, as well as medicament-free stimulated control wells, were set up. The cells were cultured in a 37° C., 5% CO2 incubator for 48 hours. Eight hours before the end of the culture, ^3H-thymidine was added, and the culture continued until the end of the experiment (i.e., the aforementioned 48 hours). The cells were collected onto glass fiber membranes using a cell collector.
ConA and LPS, as mitogens, stimulated proliferation and differentiation of T and B lymphocytes, respectively. This process is similar to the activation process of lymphocytes in vivo. Therefore, mitogen-induced lymphocyte proliferation is commonly used as an indicator to evaluate functionality of lymphocytes.

[2] = system: IL-1β; assay: IL-1β secretion by TLRs-L-stimulated mouse whole spleen lymphocytes (ELISA); conditions: Lymphocyte, 48 h, read-out: IB-1β IC50
Experimental: (§1) BALB/c mice were sacrificed by cervical dislocation, and spleens were aseptically excised to prepare whole spleen lymphocytes. The cells were adjusted to 5×10^6 cells/ml. Hydroxychloroquine sulfate was diluted with a 3-fold gradient into 3 concentrations starting from 30 μM: 30, 10 and 3 μM; naphthoquine phosphate was diluted with a 3-fold gradient into 3 concentrations starting from 10 μM: 10, 3 and 1 μM.
(§2) Mouse spleen lymphocytes were inoculated into a 96-well plate at 100 μl/well, and the stimulant TLR4-L (final concentration: 10 μg/ml), TLR7-L (final concentration: 5 μg/ml) or TLR9-L (final concentration: 1 μM) and the compounds diluted with the above concentration gradients were added. A corresponding stimulation control and a cell control (without stimulation) were set up. The cells were cultured in a 37° C., 5% CO2 incubator for 48 hours. After the end of the culture, the cell culture supernatants were collected, and the levels of IL-1β, IL-6, and IL-10 were measured by ELISA.

[3] = system: IL-6; assay: IL-6 secretion by TLRs-L-stimulated mouse whole spleen lymphocytes (ELISA); conditions: Lymphocyte, 48 h
Experimental: as §1, §2

[4] = Non-specific cytotoxicity assay (MTT), purified mouse B cells; conditions: BALB/c
Experimental: (§3) BALB/c mice were sacrificed by cervical dislocation, and spleens were aseptically excised to prepare spleen lymphocytes. The cells were adjusted to 1×10^8 cells/ml, blocked with 2.4G2 (final concentration: 10 μg/ml) for 20 min, cultured with PE-CD19 (final concentration: 5 μg/ml) for 20 min, washed with MACS buffer, centrifuged at 4° C., 300G for 10 min, 100 μl anti-PE beads were added per 1×10^8 cells, incubated with 900 μl MACS buffer for 15 min, washed with MACS buffer, centrifuged at 4° C., 300G for 10 min. The supernatant was discarded. 500 μl MACS buffer was added per 1×10^8 cells to resuspend the cells. MACS column was used for separation. Magnetically labeled cells were retained on the column. The MACS column was removed from the magnetic field and then eluted.
Hydroxychloroquine sulfate was diluted with a 2-fold gradient into 3 concentrations starting from 8 μM: 8, 4 and 2 μM. Naphthoquine phosphate was diluted with a 2-fold gradient into 3 concentrations starting from 0.5 μM: 0.5, 0.25, 0.125 μM. Purified mouse B cells were inoculated into a 96-well plate at 1×10^6/well, and gradient diluted compounds were added. A corresponding blank control and a cell control were set up. The cells were cultured in a 37° C., 5% CO2 incubator for 48 hours. […] The absorbance value was measured at 570 nm with a microplate reader (Spectra Max 190, Molecular Devices).

[5] = system: purified mouse B cells; assay: B cell proliferation assay, TLRs-L-stimulated purified mouse B cells (3H-TdR); conditions: for IC50: Mus musculus, B-cell, 48 h, purified B cells, stimulant TLR4-L 10 μg/ml; for proliferation of purified mouse splenic B cells and production of inflammatory cytokines and antibodies induced by specific TLR signals: in words
Experimental: as §3
Hydroxychloroquine sulfate was diluted 2-fold into 3 concentrations starting from 8 μM: 8, 4 and 2 μM. Naphthoquine phosphate was diluted 2-fold into 3 concentrations starting from 0.5: 0.5, 0.25 and 0.125 μM. A suspension of purified mouse B cells was inoculated into a 96-well plate at 4×10^5/well, and the stimulant TLR4-L (final concentration: 10 μg/ml), TLR7-L (final concentration: 5 μg/ml) or TLR9-L (final concentration: 1 μM) and the gradient diluted compounds were added. A corresponding stimulation control and a cell control (without stimulation) were set up. The cells were cultured in 37° C., 5% CO2 incubator for 48 hours. Eight hours before the end of the culture, ^3H-TdR was added, and the culture was continued until the end of the experiment. The cells were collected onto glass fiber membranes using a cell collector. 5 ml scintillation fluid was added, and the values of radioactive counts per minute were read on a Beta counter (2450 Microplate Counter, PerkinElmer).

[6] = system: IL-6; assay: IL-6 secretion by TLRs-L-stimulated purified mouse B cells (ELISA); conditions: B-cell, 48 h, stimulant TLR4-L 10 μg/ml
Experimental: as §3
A suspension of purified mouse B cells was inoculated into a 96-well plate at 4×10^5/well. Hydroxychloroquine sulfate was diluted with a 2-fold gradient into 3 concentrations starting from 8 μM: 8, 4 and 2 μM. Naphthoquine phosphate was diluted with a 2-fold gradient into 3 concentrations 0.5 μM.: 0.5, 0.25 and 0.125 μM. […] After the end of the culture, the cell culture supernatants were collected, and the levels of TNF-α, IL-1β, and IL-6 were measured by ELISA.

| Structure (SMILES) | IC50 ([1]; listed as Hydroxychloroquine Sulfate (Zhongxi Sunve)) | IC50 ([1]; Mus musculus, Lymphocyte) | IC50 ([2]; stimulant TLR4-L 10 μg/ml) | IC50 ([2]; stimulant TLR9-L 1 μM) | IC50 ([3]; stimulant TLR4-L 10 μg/ml) | IC50 ([3]; stimulant TLR7-L 5 μg/ml) | IC50 ([3]; stimulant TLR9-L 1 μM) | CC50 at 48 h [4] | IC50 [5] | proliferation of purified mouse splenic B cells and production of inflammatory cytokines and antibodies induced by specific TLR signals [5] | IC50 [6] | effect on LPS-induced B cell activation and proliferation ([1]; in words) |
| --- | --- | --- | --- | --- | --- | --- | --- | --- | --- | --- | --- | --- |
| CCN(CCO)CCCC(C)Nc1ccnc2cc(Cl)ccc12 (stereo not drawn) [Hydroxychloroquine Sulfate, hydroxychloroquine sulfate] | 14.9 µM | 14.9 µM | 32 µM | 41.6 µM | 15.3 µM | 1.91 µM | 3.92 µM | 19.7 µM | 9.95 µM | inhibited | > 8 µM | – |
| CC(C)(C)NCc1cc(Nc2ccnc3cc(Cl)ccc23)c2c(c1O)CCCC2.O=P(O)(O)O.O=P(O)(O)O [Naphthoquine Phosphate, Naphthoquine phosphate] | – | 0.08 µM | 3.35 µM | – | 0.63 µM | 0.007 µM | 0.29 µM | 1.98 µM | 0.19 µM | inhibited | 0.5 µM | significant inhibitory activity |
